Earlier results in article PMC11249953, “c-KIT inhibitors reduce pathology and improve behavior in the Tg(SwDI) model of Alzheimer’s disease” (Life Science Alliance, 2024).
Where two headings read alike, the source gives them in different places.

How the values were obtained:
c-KIT = tested on: c-KIT; parameters: method as in Dubreuil et al, 2009; settings: ref Dubreuil et al, 2009; cited from earlier work
[1] = ref Li et al, 2020, cited from earlier work
APPswe/PSEN1dE9 mice = tested on: APPswe/PSEN1dE9 mice; parameters: method as in Li et al, 2020; settings: chronic oral treatment, ref Li et al, 2020; cited from earlier work

Question: For `Cc1ccc(NC(=O)c2ccc(CN3CCN(C)CC3)cc2)cc1Nc1nc(-c2cccnc2)cs1` [Masitinib], which IC50 (c-KIT) is on record?
Answer: […]

Question: What about the brain penetrance [1] of the same compound?
Answer: poor brain penetrance

Question: And the brain penetrance ([1]; listed as masitinib)?
Answer: poor brain penetrant

Question: What about the amyloid-β and neuroinflammation (APPswe/PSEN1dE9 mice) of the same compound?
Answer: not reducing amyloid-β or attenuating neuroinflammation

Question: What about the spatial learning performance (APPswe/PSEN1dE9 mice) of the same compound?
Answer: reverse spatial learning performance
